Experimental data as given in article PMC9639207 (RSC Advances, 2022).

What was measured:
[1] = target: dipeptidyl peptidase-IV (DPP-IV) (Homo sapiens, UniProt P27487); test: In vitro proteolytic stability against DPP-IV; type: in vitro ADME; settings: isolated enzyme dpp iv, pH 7.4
[2] = In vitro stability on incubation with mouse serum; type: in vitro ADME; settings: mouse, serum

dipeptidyl peptidase-IV (DPP-IV), sequence (P27487 whole entry, species assumed): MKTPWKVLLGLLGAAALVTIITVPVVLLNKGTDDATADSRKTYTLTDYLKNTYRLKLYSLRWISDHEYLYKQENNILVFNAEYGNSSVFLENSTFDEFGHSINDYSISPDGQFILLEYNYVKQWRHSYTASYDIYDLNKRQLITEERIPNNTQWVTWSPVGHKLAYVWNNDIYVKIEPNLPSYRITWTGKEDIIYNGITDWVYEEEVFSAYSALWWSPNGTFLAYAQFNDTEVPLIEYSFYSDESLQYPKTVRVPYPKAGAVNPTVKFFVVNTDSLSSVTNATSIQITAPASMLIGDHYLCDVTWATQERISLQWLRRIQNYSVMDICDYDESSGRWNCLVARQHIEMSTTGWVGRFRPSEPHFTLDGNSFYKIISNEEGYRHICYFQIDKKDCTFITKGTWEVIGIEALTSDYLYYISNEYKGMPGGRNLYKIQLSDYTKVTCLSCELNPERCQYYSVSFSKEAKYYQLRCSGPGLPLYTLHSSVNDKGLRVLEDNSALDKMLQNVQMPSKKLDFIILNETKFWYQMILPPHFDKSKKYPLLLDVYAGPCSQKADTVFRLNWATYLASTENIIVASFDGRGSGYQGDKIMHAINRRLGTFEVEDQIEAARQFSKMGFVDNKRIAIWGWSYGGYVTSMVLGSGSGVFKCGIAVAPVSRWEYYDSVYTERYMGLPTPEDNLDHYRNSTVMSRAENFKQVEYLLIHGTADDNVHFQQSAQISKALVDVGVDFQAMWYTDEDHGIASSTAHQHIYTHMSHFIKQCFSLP

| SMILES | half-life [1] | half-life at 200 µM [2] |
| --- | --- | --- |
| CC[C@H](C)[C@H](NC(=O)[C@H](CO)NC(=O)[C@H](CCC(=O)O)NC(=O)[C@H](CC(=O)N[C@@H]1O[C@H](CO)[C@@H](O[C@@H]2O[C@H](CO)[C@@H](O[C@@H]3O[C@H](CO[C@H]4O[C@H](CO)[C@@H](O)[C@H](O)[C@@H]4O[C@@H]4O[C@H](CO)[C@@H](O[C@@H]5O[C@H](CO)[C@H](O)[C@H](O)[C@H]5O)[C@H](O)[C@H]4NC(C)=O)[C@@H](O)[C@H](O[C@H]4O[C@H](CO)[C@@H](O)[C@H](O)[C@@H]4O[C@@H]4O[C@H](CO)[C@@H](O[C@@H]5O[C@H](CO)[C@H](O)[C@H](O)[C@H]5O)[C@H](O)[C@H]4NC(C)=O)[C@@H]3O)[C@H](O)[C@H]2NC(C)=O)[C@H](O)[C@H]1O)NC(=O)[C@H](C)NC(=O)[C@H](C)NC(=O)[C@H](CCC(N)=O)NC(=O)CNC(=O)[C@H](CCC(=O)O)NC(=O)[C@H](CC(C)C)NC(=O)[C@H](Cc1ccc(O)cc1)NC(=O)[C@H](CO)NC(=O)[C@H](CO)NC(=O)[C@@H](NC(=O)[C@H](CC(=O)O)NC(=O)[C@H](CO)NC(=O)[C@@H](NC(=O)[C@H](Cc1ccccc1)NC(=O)[C@@H](NC(=O)CNC(=O)[C@H](CCC(=O)O)NC(=O)[C@H](C)NC(=O)[C@@H](N)Cc1c[nH]cn1)[C@@H](C)O)[C@@H](C)O)C(C)C)C(=O)N[C@@H](C)C(=O)N[C@@H](Cc1c[nH]c2ccccc12)C(=O)N[C@@H](CC(C)C)C(=O)N[C@H](C(=O)N[C@@H](CCCCN)C(=O)NCC(=O)N[C@@H](CCCNC(=N)N)C(=O)NCC(=O)O)C(C)C [Glycan-GLP-1-3(G2)] | 3.088 ± 0.0183 h | 12.3 ± 0.162 h |
| CC[C@H](C)[C@H](NC(=O)[C@H](Cc1ccccc1)NC(=O)[C@H](CCC(=O)O)NC(=O)[C@H](CCCCN)NC(=O)[C@H](C)NC(=O)[C@H](C)NC(=O)[C@H](CCC(N)=O)NC(=O)CNC(=O)[C@H](CCC(=O)O)NC(=O)[C@H](CC(C)C)NC(=O)[C@H](Cc1ccc(O)cc1)NC(=O)[C@H](CO)NC(=O)[C@H](CO)NC(=O)[C@@H](NC(=O)[C@H](CC(=O)N[C@@H]1O[C@H](CO)[C@@H](O[C@@H]2O[C@H](CO)[C@@H](O[C@@H]3O[C@H](CO[C@H]4O[C@H](CO)[C@@H](O)[C@H](O)[C@@H]4O[C@@H]4O[C@H](CO)[C@@H](O[C@@H]5O[C@H](CO)[C@H](O)[C@H](O)[C@H]5O)[C@H](O)[C@H]4NC(C)=O)[C@@H](O)[C@H](O[C@H]4O[C@H](CO)[C@@H](O)[C@H](O)[C@@H]4O[C@@H]4O[C@H](CO)[C@@H](O[C@@H]5O[C@H](CO)[C@H](O)[C@H](O)[C@H]5O)[C@H](O)[C@H]4NC(C)=O)[C@@H]3O)[C@H](O)[C@H]2NC(C)=O)[C@H](O)[C@H]1O)NC(=O)[C@H](CO)NC(=O)[C@@H](NC(=O)[C@H](Cc1ccccc1)NC(=O)[C@@H](NC(=O)CNC(=O)[C@H](CCC(=O)O)NC(=O)[C@H](C)NC(=O)[C@@H](N)Cc1c[nH]cn1)[C@@H](C)O)[C@@H](C)O)C(C)C)C(=O)N[C@@H](C)C(=O)N[C@@H](Cc1c[nH]c2ccccc12)C(=O)N[C@@H](CC(C)C)C(=O)N[C@H](C(=O)N[C@@H](CCCCN)C(=O)NCC(=O)N[C@@H](CCCNC(=N)N)C(=O)NCC(=O)O)C(C)C [Glycan-GLP-1-1(G2)] | 0.818 ± 0.095 h | 5.92 ± 0.155 h |
